Experimental data reported in patent publication US11173146B2, “Selective activators of the intermediate conductance CA2+activated K+ channel KCa3.1 and their methods of use” (The Regents of the University of California, priority 2014, dated 2021).
“Also recorded” adds a separate entry of the source. Where two headings read alike, the source gives them in different places.

Legend:
[1] = biological target: T1, mNaV1.2 (Mus musculus, UniProt B1AWN6); experiment: NaV1.2 current inhibition (N1E-115 cells); assay type: cell-based
T1 construct: NaV1.2 currents from N1E-115 cells; host or cells: N1E-115 mouse neuroblastoma
T1 sequence (B1AWN6 whole entry): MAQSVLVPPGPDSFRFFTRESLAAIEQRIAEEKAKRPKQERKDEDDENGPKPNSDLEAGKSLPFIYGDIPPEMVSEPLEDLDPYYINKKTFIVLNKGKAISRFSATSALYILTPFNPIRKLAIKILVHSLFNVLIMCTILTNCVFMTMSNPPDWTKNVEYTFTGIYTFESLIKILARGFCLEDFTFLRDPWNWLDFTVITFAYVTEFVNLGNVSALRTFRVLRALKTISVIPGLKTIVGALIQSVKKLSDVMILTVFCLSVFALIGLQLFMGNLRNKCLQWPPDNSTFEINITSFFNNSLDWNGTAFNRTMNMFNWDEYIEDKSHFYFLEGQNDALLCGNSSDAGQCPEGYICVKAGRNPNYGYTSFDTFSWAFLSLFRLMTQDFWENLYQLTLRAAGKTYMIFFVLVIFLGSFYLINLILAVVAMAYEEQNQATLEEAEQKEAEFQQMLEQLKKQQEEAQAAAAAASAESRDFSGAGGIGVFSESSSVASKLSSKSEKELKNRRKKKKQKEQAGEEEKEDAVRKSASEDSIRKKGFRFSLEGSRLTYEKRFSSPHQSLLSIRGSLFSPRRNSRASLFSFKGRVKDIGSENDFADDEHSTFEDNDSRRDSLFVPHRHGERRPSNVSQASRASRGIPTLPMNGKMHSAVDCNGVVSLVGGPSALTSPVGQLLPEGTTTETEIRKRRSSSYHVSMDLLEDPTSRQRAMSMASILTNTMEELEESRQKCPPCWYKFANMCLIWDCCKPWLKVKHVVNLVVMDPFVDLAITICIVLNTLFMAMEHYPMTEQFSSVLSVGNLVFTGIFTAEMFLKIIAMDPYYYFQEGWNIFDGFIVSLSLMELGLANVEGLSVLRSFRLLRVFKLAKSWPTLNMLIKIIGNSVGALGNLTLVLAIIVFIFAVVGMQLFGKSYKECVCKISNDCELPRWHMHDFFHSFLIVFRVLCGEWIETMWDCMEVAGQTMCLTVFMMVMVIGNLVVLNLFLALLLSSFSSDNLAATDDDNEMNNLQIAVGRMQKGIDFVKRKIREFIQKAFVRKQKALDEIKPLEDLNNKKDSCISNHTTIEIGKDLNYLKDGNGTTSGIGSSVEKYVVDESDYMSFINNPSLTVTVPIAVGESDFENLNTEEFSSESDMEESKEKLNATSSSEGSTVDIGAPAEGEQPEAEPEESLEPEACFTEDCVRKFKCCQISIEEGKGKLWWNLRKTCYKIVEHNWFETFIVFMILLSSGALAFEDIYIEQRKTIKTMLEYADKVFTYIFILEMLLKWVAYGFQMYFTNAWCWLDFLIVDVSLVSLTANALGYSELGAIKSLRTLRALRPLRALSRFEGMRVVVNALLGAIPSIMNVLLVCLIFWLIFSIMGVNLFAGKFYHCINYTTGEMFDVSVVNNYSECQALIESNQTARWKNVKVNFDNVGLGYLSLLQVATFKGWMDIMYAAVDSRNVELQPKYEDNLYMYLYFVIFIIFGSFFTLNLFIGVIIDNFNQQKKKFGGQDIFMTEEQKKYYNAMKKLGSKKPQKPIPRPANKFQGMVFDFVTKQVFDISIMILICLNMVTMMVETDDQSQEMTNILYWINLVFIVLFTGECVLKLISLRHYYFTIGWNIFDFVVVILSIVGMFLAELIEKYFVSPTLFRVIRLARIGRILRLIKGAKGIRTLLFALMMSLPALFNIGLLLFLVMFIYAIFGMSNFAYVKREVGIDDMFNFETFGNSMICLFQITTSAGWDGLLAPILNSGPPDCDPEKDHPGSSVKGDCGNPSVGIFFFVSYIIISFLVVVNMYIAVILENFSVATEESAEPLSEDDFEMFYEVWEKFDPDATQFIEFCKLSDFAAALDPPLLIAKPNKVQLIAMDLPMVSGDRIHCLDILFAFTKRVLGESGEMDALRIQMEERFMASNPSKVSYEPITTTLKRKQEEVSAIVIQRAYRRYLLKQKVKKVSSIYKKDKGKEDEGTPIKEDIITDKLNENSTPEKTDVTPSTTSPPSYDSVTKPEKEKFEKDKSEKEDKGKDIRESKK

[2] = biological target: T2, hNaV1.4 (Homo sapiens, UniProt P35499); experiment: NaV1.4 current inhibition (HEK-293); assay type: cell-based; conditions: HEK293
T2 construct: host or cells: HEK-293

[3] = biological target: T3, hNaV1.7 (Homo sapiens, UniProt Q15858); experiment: NaV1.7 current inhibition (CHO cells); assay type: cell-based
T3 construct: host or cells: CHO (division arrested)
T3 sequence (Q15858 whole entry): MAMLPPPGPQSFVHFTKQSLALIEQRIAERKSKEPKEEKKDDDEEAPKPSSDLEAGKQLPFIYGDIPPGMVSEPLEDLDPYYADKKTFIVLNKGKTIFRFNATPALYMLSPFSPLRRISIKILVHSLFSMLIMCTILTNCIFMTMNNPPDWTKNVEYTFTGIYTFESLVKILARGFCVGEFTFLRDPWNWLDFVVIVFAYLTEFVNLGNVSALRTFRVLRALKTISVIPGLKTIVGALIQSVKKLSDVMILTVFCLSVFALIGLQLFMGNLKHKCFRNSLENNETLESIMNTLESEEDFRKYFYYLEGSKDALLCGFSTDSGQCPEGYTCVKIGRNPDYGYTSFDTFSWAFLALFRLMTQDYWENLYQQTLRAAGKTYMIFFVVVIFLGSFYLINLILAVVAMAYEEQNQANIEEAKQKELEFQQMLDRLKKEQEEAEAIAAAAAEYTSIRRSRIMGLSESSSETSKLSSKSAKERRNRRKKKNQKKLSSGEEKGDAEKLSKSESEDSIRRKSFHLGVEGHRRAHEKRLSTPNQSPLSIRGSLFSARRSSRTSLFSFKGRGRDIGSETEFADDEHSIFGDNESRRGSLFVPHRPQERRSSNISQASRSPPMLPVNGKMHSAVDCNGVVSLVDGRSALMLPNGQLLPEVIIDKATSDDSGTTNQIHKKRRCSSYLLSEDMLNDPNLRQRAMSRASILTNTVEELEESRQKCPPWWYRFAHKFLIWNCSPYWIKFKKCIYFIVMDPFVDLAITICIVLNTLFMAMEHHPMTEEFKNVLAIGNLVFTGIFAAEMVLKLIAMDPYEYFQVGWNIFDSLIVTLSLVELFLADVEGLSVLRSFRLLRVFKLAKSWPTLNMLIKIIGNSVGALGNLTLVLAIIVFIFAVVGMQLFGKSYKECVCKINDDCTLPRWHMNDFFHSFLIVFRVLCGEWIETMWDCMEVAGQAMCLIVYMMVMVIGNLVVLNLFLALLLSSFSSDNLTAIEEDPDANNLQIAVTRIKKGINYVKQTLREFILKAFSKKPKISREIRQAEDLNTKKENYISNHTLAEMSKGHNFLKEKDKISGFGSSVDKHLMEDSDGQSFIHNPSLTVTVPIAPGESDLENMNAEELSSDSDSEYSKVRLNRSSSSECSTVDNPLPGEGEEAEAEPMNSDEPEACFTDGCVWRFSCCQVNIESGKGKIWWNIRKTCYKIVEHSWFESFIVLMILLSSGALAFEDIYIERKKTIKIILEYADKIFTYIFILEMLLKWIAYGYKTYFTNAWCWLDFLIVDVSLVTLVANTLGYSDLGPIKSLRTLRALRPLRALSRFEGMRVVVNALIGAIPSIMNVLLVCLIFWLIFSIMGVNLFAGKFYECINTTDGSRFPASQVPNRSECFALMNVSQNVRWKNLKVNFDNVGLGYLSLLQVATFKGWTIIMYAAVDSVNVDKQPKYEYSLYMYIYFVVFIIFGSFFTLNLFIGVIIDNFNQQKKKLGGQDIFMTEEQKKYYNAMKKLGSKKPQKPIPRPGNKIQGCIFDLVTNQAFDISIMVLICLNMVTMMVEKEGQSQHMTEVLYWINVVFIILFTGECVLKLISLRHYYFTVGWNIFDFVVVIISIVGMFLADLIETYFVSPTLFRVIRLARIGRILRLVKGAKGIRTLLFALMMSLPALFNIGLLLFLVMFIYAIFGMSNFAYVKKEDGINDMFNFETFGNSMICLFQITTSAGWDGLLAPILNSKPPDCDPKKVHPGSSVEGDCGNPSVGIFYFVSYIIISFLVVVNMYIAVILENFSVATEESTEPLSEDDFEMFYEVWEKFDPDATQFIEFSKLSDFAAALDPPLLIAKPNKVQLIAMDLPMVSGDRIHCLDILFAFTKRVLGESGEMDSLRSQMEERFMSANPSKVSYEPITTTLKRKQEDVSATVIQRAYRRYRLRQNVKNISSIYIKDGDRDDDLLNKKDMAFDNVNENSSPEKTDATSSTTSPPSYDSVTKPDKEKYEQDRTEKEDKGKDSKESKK

[4] = tested on: wild-type mice; experiment: Telemetry of blood pressure and heart rate in wild-type mice; assay type: in vivo; conditions: for mean arterial blood pressure: FIG. 6A
Method: Telemetry. […] . […] . […] . […] . Maximal injection volume was ≤600 μl. […] . […] Data were analyzed using the DSI software.
. […] . The blood pressure drop was accompanied by a severe reduction of heart rate (HR) by ˜400 bpm (FIG. 6A left). To avoid fatal hypothermia or circulatory collapse, we handled these severely bradycardic mice for ˜2 h and increased RT to 34° C. As shown in FIG. 6A these maneuvers increased MAP transiently, presumably because of a sympathetic input on total peripheral resistance, but not HR and the low HR persisted over another 10 h before the mice slowly recovered (FIG. 6A left). […] However, this drop was more transient and lasted for ˜3 h.

[5] = Pharmacokinetics in mice (UPLC/MS); assay type: in vivo, mouse; design: distribution from blood into tissue / oral availability: dose or concentration left out as unconfirmed; conditions: for half-life: iv, 10 mg/kg i.v.
From the text: Pharmacokinetics. Twelve week-old male C57BI/6Jmice were purchased from Charles River Laboratories (Wilmington, Mass.) and housed in microisolator cages with rodent chow and autoclaved water ad libitum. All experiments were in accordance with National Institutes of Health guidelines and approved by the University of California, Davis, Institutional Animal Care and Use Committee. […] At various time points after the injection blood was collected into EDTA blood sample collection tubes either from the saphenous vein or by cardiac puncture under deep isoflurane anesthesia. Following the cardiac puncture mice were sacrificed by cutting the heart and then the brain was removed. Individual mice were typically used for 3 times points (2 blood collections from the saphenous vein plus the terminal blood collection). Plasma was separated by centrifugation and plasma and brain samples were stored at −80 °C pending analysis. Brain samples were homogenized in 1 ml of H2O with a Brinkman Kinematica PT 1600E homogenizer and the protein precipitated with 1 ml of acetonitrile. The samples were then centrifuged at 3000 rpm and supernatants concentrated to 1 ml. Plasma and homogenized brain samples were purified using C18 solid phase extraction cartridges (ThermoFisher Scientific, Waltham, Mass., USA) preconditioned with acetonitrile followed by 1 ml of water. The loaded column was washed with 2 ml of water. […] Eluted fractions were dried under nitrogen and reconstituted in acetonitrile. LC/MS analysis was performed with a Waters Acquity UPLC (Waters, New York, N.Y.) equipped with a Acquity UPLC BEH 1.7 μm RP-18 column (Waters, New York, N.Y.) interfaced to a TSQ Quantum Access Max mass spectrometer (MS) (ThermoFisher Scientific, Waltham, Mass., USA). The isocratic mobile phase consisted of 80% acetonitrile and 20% water, both containing 0.1% formic acid with a flow rate of 0.25 ml/min.

Q: Which inhibition at 50 µM ([1]; at 50 μM) does the source give for `Cc1cc2nc(N)oc2c2ccccc12` [SKA-121, 5-Methylnaphtho[2,1-d]oxazol-2-amine] here?
A: Its inhibition at 50 µM is 15.2 ± 12.7%.

Q: What about the inhibition at 50 µM ([2]; at 50 μM) of the same compound?
A: Its inhibition at 50 µM is 25.7 ± 1.3%.

Q: And the inhibition at 50 µM ([3]; at 50 μM)?
A: The inhibition at 50 µM was 28.5 ± 1.8%.

Q: And the “MAP” value ([4]; 30 mg/kg i.p.)?
A: The value was “Neither SKA-111 nor SKA-121 caused significant changes; also recorded: did not produce significant alterations”.

Q: And the “drop in mean arterial blood pressure (MAP)” value ([4]; 100 mg/kg i.p.)?
A: Its value is roughly 20 mmHg.

Q: What about the “duration of MAP drop” value ([4]; 100 mg/kg i.p.) of the same compound?
A: Its value is roughly 3 h.

Q: And the “heart rate” value ([4]; 100 mg/kg i.p.)?
A: The value was “not and only moderately reduced”.

Q: What about the “mean arterial blood pressure” value ([4]; 100 mg/kg i.p.) of the same compound?
A: The value was “reduced mean arterial blood pressure”.

Q: And the oral availability ([5]; […] mg/kg oral vs i.v., mice)?
A: The oral availability was “roughly 25%”.

Q: And the concentration at 1 h ([5]; male, C57Bl/6J, mouse, plasma, 10 mg/kg, […] mg/kg oral, mice, read-out: plasma level at 1 h after oral administration)?
A: Its concentration at 1 h is 1100 ± 100 nM.

Q: And the concentration at 8 h ([5]; male, C57Bl/6J, mouse, plasma, 10 mg/kg, […] mg/kg oral, mice, read-out: plasma level at 8 h after oral administration)?
A: Its concentration at 8 h is 27 ± 5 nM.

Q: And the concentration at 5 min ([5]; male, C57Bl/6J, mouse, plasma, intravenous, 10 mg/kg, […] mg/kg i.v., mice, read-out: total plasma concentration at 5 min)?
A: The concentration at 5 min was 21300 ± 2400 nM.

Q: And the concentration at 1 h ([5]; male, C57Bl/6J, mouse, plasma, intravenous, 10 mg/kg, […] mg/kg i.v., mice, read-out: total plasma concentration at 1 h)?
A: Its concentration at 1 h is 483 ± 231 nM.

Q: And the concentration at 4 h ([5]; male, C57Bl/6J, mouse, plasma, intravenous, 10 mg/kg, […] mg/kg i.v., mice, read-out: total plasma concentration at 4 h)?
A: The concentration at 4 h was 53 ± 44 nM.

Q: What about the half-life ([5]; male, C57Bl/6J, mouse, plasma, 10 mg/kg, mice, read-out: half-life) of the same compound?
A: The half-life was roughly 0.333 h.

Q: And the Kp ([5]; male, C57Bl/6J, mouse, mice, averaged paired brain and plasma samples, read-out: brain/plasma ratio)?
A: Its Kp is 3.3 ± 2.9.

Q: For `Cc1cc2sc(N)nc2c2ccccc12` [SKA-111, 5-methylnaphtho[1,2-d]thiazol-2-amine], which inhibition at 25 µM ([1]; at 25 μM) is on record?
A: The inhibition at 25 µM was 19.5 ± 6.9%.

Q: What about the inhibition at 25 µM ([2]; at 25 μM) of the same compound?
A: Its inhibition at 25 µM is 33.4 ± 10.5%.

Q: And the inhibition at 25 µM ([3]; at 25 μM)?
A: The inhibition at 25 µM was 27.5 ± 0.9%.

Q: What about the “MAP” value ([4]; 30 mg/kg i.p.) of the same compound?
A: Its value is “Neither SKA-111 nor SKA-121 caused significant changes; also recorded: did not produce significant alterations”.

Q: What about the “change of HR” value ([4]; 30 mg/kg i.p.) of the same compound?
A: The value was roughly −50 bpm.

Q: And the “duration of HR decrease after injection” value ([4]; 30 mg/kg i.p.)?
A: Its value is roughly 2 h.

Q: What about the “heart rate” value ([4]; 30 mg/kg i.p., 2 h after injection) of the same compound?
A: The value was “moderately reduced heart rate”.

Q: What about the “drop in mean arterial blood pressure (MAP)” value ([4]; 100 mg/kg i.p.) of the same compound?
A: The value was roughly 25 mmHg.

Q: What about the “heart rate” value ([4]; 100 mg/kg i.p.) of the same compound?
A: Its value is “severely reduced heart rate”.

Q: What about the “reduction of heart rate (HR)” value ([4]; 100 mg/kg i.p.) of the same compound?
A: Its value is roughly 400 bpm.

Q: What about the “mean arterial blood pressure” value ([4]; 100 mg/kg i.p.) of the same compound?
A: The value was “reduced mean arterial blood pressure”.

Q: What about the “distribution from blood into tissue” value ([5]; […] mg/kg i.v., mice) of the same compound?
A: Its value is roughly 2 min.

Q: And the “total brain concentrations probably achieved” value ([5]; i.p. 100 mg/kg, for hours)?
A: Its value is 10 to 30 µM.

Q: What about the half-life ([5]; male, C57Bl/6J, mouse, plasma, 10 mg/kg, mice, read-out: elimination half-life (converted)) of the same compound?
A: The half-life was 4.7 ± 0.6 h.
